US4678800A, “Gamma-r-glutamoyl derivatives” (Ciba-Geigy Corporation, priority 1984, dated 1987)

Key:
[1] = system: spontaneous hypertensive rat; assay: in vivo lowering effect on blood pressure and heart rate in hypertensive rats; details: dose of 10 mg/kg p.o. or lower
Excerpt: This is demonstrable by in vivo or in vitro animal tests, using advantageously mammals, e.g., rats, cats, dogs or isolated organs thereof, as test objects. The animals may either be normotensive or hypertensive e.g., genetically hypertensive rats, or renal hypertensive rats and dogs, and sodium-depleted dogs. Said compounds can be applied to them enterally or parenterally, advantageously orally or intravenously, for example within gelatin capsules or in the form of starch suspensions or aqueous solutions, respectively. The applied dosage may range between about 0.01 and 50 mg/kg/day, preferably between about 0.1 and 25 mg/kg/day, advantageously between about 0.1 and 10 mg/kg/day.
The in vivo lowering effect on the blood pressure is recorded either directly by means of a catheter, for example placed in the dog's femoral artery, or indirectly by sphygmomanometry at the rat's tail, and a transducer, expressing the blood pressure prior and after dosing in mm Hg. Thus, for example, the representative members of the compounds of this invention, illustrated by the examples herein, are effective in hypertensive rats and at p.o. doses as low or lower than 10 mg/kg/day.

[2] = system: angiotensin I converting enzyme; assay: inhibition of the angiotensin I pressor response in anesthetized normotensive rats; assay type: in vivo, rat; details: intravenous dose as low as 0.1 mg/kg
Procedure: The enzyme renin, normally causes specific hydrolysis of the circulating protein renin-substrate. This hydrolysis generates angiotensin I, which is further hydrolyzed by the action of said converting enzyme to the potent vasoconstrictor angiotensin II. The inhibition of said enzyme prevents the generation of angiotensin II from I and, therefore, attenuates any pressure response following an angiotensin I challenge.
The corresponding in vivo test is performed with male, normotensive rats, which are anesthetized with 100-120 mg/kg i.p. of sodium ethyl-(1-methylpropyl)-malonylthiourea. A femoral artery and saphenous vein are cannulated for direct blood pressure measurement and i.v. administration of angiotensin I and compounds of this invention. After the basal blood pressure is stabilized, pressor responses to 3 challenges of 0.33 μg/kg of angiotension I i.v. , in 5 minute intervals, are obtained. Such pressure responses are again obtained 5, 10, 15, 30 and 60 minutes after either i.v. or p.o. administration (stomach tube) of the compounds to be tested, and compared with the initial responses. Any observed decrease of said pressor response is an indication of angiotensin I converting enzyme inhibition, ranging up to 80% or greater after 10 mg/kg i.v., or lower doses, which decrease may be sustained up to 60 minutes.

[3] = molecular target: T1, angiotensin-converting enzyme isolated from lungs of adult male rabbits (Oryctolagus cuniculus, UniProt P12822); assay: in vitro inhibition of the angiotensin-converting enzyme (hippuryl-histidyl-leucine substrate); assay type: biochemical; details: rabbit lung enzyme, 37° for 30 minutes
T1 construct: angiotensin-converting enzyme isolated from lungs of adult male rabbits; from tissue; host or cells: lungs of adult male rabbits
T1 sequence (P12822 34-1310): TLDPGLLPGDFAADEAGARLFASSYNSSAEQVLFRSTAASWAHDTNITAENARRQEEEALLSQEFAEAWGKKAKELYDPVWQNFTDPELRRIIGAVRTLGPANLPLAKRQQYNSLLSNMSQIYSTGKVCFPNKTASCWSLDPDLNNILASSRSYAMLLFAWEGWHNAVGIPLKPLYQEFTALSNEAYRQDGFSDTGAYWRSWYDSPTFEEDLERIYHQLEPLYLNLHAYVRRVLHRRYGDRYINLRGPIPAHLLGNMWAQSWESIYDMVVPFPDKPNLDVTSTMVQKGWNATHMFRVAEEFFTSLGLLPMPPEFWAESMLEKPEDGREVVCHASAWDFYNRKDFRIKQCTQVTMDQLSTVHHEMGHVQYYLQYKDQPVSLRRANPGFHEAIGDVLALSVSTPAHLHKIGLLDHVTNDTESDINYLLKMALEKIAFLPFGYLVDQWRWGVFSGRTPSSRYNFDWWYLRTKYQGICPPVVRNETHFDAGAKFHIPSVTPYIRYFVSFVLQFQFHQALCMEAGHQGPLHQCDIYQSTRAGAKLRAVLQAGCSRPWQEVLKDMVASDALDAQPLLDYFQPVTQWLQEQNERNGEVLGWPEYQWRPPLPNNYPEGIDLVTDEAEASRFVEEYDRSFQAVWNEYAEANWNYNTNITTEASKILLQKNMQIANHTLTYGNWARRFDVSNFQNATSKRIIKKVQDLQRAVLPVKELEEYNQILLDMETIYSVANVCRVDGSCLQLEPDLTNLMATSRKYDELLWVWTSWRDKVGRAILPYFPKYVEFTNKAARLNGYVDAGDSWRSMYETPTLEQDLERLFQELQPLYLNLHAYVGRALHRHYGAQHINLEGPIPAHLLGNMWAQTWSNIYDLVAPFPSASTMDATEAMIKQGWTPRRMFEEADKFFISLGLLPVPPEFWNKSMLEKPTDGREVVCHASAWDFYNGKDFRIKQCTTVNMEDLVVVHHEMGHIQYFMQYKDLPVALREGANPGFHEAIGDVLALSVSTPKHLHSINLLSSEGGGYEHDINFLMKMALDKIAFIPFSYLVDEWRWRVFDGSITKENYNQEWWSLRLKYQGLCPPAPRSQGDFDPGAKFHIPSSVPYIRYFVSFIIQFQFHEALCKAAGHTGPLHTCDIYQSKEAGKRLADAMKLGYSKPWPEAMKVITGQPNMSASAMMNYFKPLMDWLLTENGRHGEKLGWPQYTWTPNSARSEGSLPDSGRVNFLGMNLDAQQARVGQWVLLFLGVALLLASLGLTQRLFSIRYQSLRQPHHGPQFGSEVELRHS
Procedure: Biophys. Acta 293, 451 (1973). According to this method, said compounds are dissolved at about 1 mM concentrations in phosphate buffer, externally cooled with ice. To these solutions various μl of histidyl-leucine in phosphate buffer are added, followed by 100 μl of 5 mM hippuryl-histidyl-leucine in phosphate buffer and 50 μl of the angiotensin-converting enzyme isolated from lungs of adult male rabbits, which is freshly prepared in Tris buffer containing potassium and magnesium chloride, as well as sucrose. Said solutions are incubated at 37° for 30 minutes and combined with 0.75 m- of 0.6 N aqueous sodium hydroxide to stop further reaction. Then 100 μl of o-phthalaldehyde are added at room temperature, and 10 minutes later 100 μl of 6N hydrochloric acid are also added. These samples are read against water in a spectrophotometer set at 360 nm, and the optical densities thereof estimated. They are corrected for the standard curve via a conversion factor expressing nanomoles of histidyl-leucine formed during said 30 minute incubation period. The results are plotted against drug concentration to determine the IC50, i.e., the drug concentration which gives half the activity of the control sample containing no drug. Again, said representative members of the compounds of this invention are very effective in this in vitro test system.

| SMILES | decrease of heart rate [1] | lowering of blood pressure [1] | inhibition of the pressor response following angiotensin I challenge [2] | IC50 [3] [nM] |
| --- | --- | --- | --- | --- |
| O=C(N[C@H](CCC(=O)N1c2ccccc2C[C@H]1C(=O)O)C(=O)O)c1cccnc1 [Example 5, 1-(N-Nicotinoyl-γ-R-glutamyl)-indoline-2S-carboxylic acid] | decrease the heart rate | lower blood pressure |  |  |
| O=C(N[C@H](CCC(=O)N1c2ccccc2C[C@H]1C(=O)O)C(=O)O)OCc1ccccc1 [Example 1, 1-(N-Benzyloxycarbonyl-γ-R-glutamyl)indoline-2-S-carboxylic acid] | decrease the heart rate | lower blood pressure | about 70% | ~7 |
